# Measured values: US12239617B2, “Mono- and di-amidine endo-exonuclease inhibitors and methods for inhibiting endo-exonuclease activity” (MONTDOREX INC., priority 2017, dated 2025)
# Legend:
# [1] = system: Endo/exonuclease in Pneumocystis carinii; details: cited from earlier work
# [2] = system: human endo-exonuclease; experiment: Endo-exonuclease inhibition assay (digestion of circular plasmid DNA, agarose gel); type: biochemical
# Experimental: The human endo-exonuclease was isolated according to the method described by Liu and Chow et al (1995). The cultured cells were detached with trypsin-EDTA and the cell suspensions were centrifuged at 4° C. with a force of 700 g for 10 minutes. The cell pellets were washed twice with cold phosphate buffered saline (PBS). The cells were then resuspended and sonicated in 20 mM Tris-HCl, pH 7.5, containing 5 mM EDTA and 1 mM PMSF (buffer A). The resulting cell lysis suspensions were centrifuged at 4° C. at 10,000 g for 15 min. The supernatants were then loaded onto an antibody-protein A-Sepharose affinity column, as previously described by Chow and Resnick (1987). After washing extensively with buffer A (i.e. until the A280 of the eluates were zero), the column was then eluted with buffer A containing 3.5 M MgCl2 to elute the endo-exonuclease. The eluted endo-exonuclease was dialyzed extensively against buffer A with at least two changes of buffer and one change of distilled water. The endo-exonuclease was then concentrated by lyophilization.
# The endo-exonuclease activities were determined by measuring the digestion of circular plasmid DNA following the exemplary set of steps. Superhelical pBR322 DNA (or YEp DNA) was treated with endo-exonuclease at 37° C. Reactions were stopped by the addition of a solution containing 5 mM EDTA, 1% SDS, 30% glycerol, and bromophenol blue. The resulting mixtures were then loaded onto a 0.7% agarose gel and electrophoresed for 3 hours at 70 V. The gels were stained with 100 ml of 0.5 μg/ml ethidium bromide solution. Endo-exonuclease activities were measured as the rate of conversion from RFI to RFII to RFIII and subsequent fragments.
# For the inhibition assay, pentamidine, mono-amidine compounds according to the present teachings and di-amidine compounds according to the present teachings were added to the endo-exonuclease prior to the start of the nuclease reaction. In order to arrive at the measurements related to the % of cell growth of H661, the MTT assay as described above was performed. The resulting endo-exonuclease inhibition is shown in the Table 1 and Table 2 that follow: […]
# [3] = system: Lewis Lung cancer cells; experiment: Lewis Lung cancer secondary lung tumours in mice after removal of the primary tumour; type: in vivo; details: treated after surgical removal of primary tumour
# Experimental: Lewis Lung cancer cells are injected subcutaneously into standard laboratory mice […]. Thereafter, they rapidly formed solid tumours. The sizes of the tumours can be measured. Although the injected cells are derived from lung cancers, the tumours actually grow in the back of the mice. All animals were inoculated at the same site. Primary tumours were allowed to grow until they were 0.5-1.0 cm^3 in size. At this point, cells from the tumours start circulating in the blood streams of the mice. These circulating cells have the capacity to form secondary tumours in the lung. The primary tumours are removed surgically from the mice. The mice are then treated with the amidine compounds so as to try and control the growth of secondary tumours. The extent to which control has been achieved is measured by sacrificing the mice and by physically counting the new tumours that can be seen growing on the surfaces of the lungs.
# [4] = system: H460 Lung Carcinoma Cell Line; experiment: MTT assay on H460 Lung Carcinoma Cell Line; type: cell-based
# From the text: (§1) Cell Survival—MTT assay: The MTT (3-[4,5-Dimethylthiazol-2-yl]-2,5 diphenyl tertrazolim bromide) method of determining cell growth/cytotoxicity is used to determine cell survival. MIT is a tetrazolium salt cleaved by mitochondrial dehydrogenases of living cells. Cleavage converts yellow, water soluble MTT to an insoluble, purple formazan crystal. The crystals can be solubilized with a 50% N,N-dimethylformamide (vol/vol), 20% SDS (wt/vol) solution (pH4.7), and absorbance determined at a wavelength of 570 nm. Dead cells will not cleave MTT and uncleaved MTT is not detectable at this wavelength. The amount of MTT that is cleaved increases with increasing cell numbers, and decreases as a result of cell cytotoxicity (Niks and Otto 1990, Hussain et al. 1993). Cells were harvested from cell cultures using a standard protocol (i.e. Trypsin/EDTA). The cells (1000 to 5000 cells depending on cell type in 50 μl) were then plated and incubated overnight at 37° C. The compound (e.g. the compound of formula (I); compound of formula (II); pentamidine; or the vehicle) was introduced. After 2 days of incubation at 37° C., 10 μl of a 5 mg/ml solution of MTT was then added to all the experimental wells as well as the media control well. The plates were further incubated for 4 hours. MTT solubilization buffer (100 μl) was then added and the plates were incubated overnight at 37° C. The plates were then read on an ELISA plate reader with absorbance at 570 nm and a reference at 630 nm.
# (§2) Iniparib, Veliparib and Olaparib were also subjected to the MTT assay without an endo-exonuclease compound as controls.
# [5] = system: HT29 Colon Cancer Cell Line; experiment: MTT assay on HT29 Colon Cancer Cell Line; type: cell-based, human
# Experimental: (§3) Cell lines from human colon adenocarcinoma (HT29), human breast adenocarcinoma (MCF7) and human cervical epithelioid carcinoma (HeLa) were obtained from the American Type Culture Collection (ATCC) and have ATCC accession numbers HTB-38, HTB-22, and CCL-2 respectively. The normal primary cell, NHDF, was obtained from Dr. Shirley Lehnert. These cells are normal human skin fibroblasts. The cells were grown in RPMI media supplemented with 10% FCS at 37° C. in a humidified incubator with 5% CO2.
# as §1, §2
# [6] = system: MCF7 Breast Cancer Cell Line; experiment: MTT assay on MCF7 Breast Cancer Cell Line; type: cell-based, human
# Experimental: as §3, §1, §2
# [7] = system: H661 (Lung Cancer Cell); experiment: MTT assay, cell growth of H661 lung cancer cell; type: cell-based
# From the text: as §1, with “4 hours. […] The plates” for “4 hours. MTT solubilization buffer (100 μl) was then added and the plates were incubated overnight at 37° C. The plates”, “630 nm. […]” for “630 nm.”
# [8] = cited from earlier work
# [9] = Homo sapiens, NCI-H460, PARP inhibitor alone: Iniparib 42 μM, Veliparib 50 μM, Olaparib 73 μM
# [10] = Homo sapiens, HT-29, PARP inhibitor alone: Iniparib 42 μM, Veliparib 50 μM, Olaparib 73 μM
# [11] = Homo sapiens, PARP inhibitor alone: Iniparib 42 μM, Veliparib 50 μM, Olaparib 73 μM
compound,measurement,setting,value
"N=C(NC1CC1)c1ccc(-c2ccc(-c3ccc(C(=N)NC4CC4)cc3)o2)cc1 [2,5-bis [4-N-(cyclopropylguanyl)phenyl] furan]",nuclease inhibition activity in P. carinii,[1],showed nuclease inhibition activity
"c1cc(-c2ccc(-c3ccc(C4=NCCCN4)cc3)o2)ccc1C1=NCCCN1 [2,5-bis-p[3,4,5,6-tetrahydropyrimidyl)phenyl]furan]",nuclease inhibition activity in P. carinii,[1],showed nuclease inhibition activity
"CC(C)NC(=N)c1ccc(-c2ccc(-c3ccc(C(=N)NC(C)C)cc3)o2)cc1 [2,5-bis[4-(N-isopropylguanyl)phenyl]furan]",nuclease inhibition activity in P. carinii,[1],inhibits endo-exonuclease activity
"CC(C)CNC(=N)c1ccc(-c2ccc(-c3ccc(C(=N)NCC(C)C)cc3)o2)cc1 [2,5-bis[4-N-isobutylguanyl)phenyl]furan]",nuclease inhibition activity in P. carinii,[1],showed nuclease inhibition activity
"N=C(NCC1CC1)c1ccc(-c2ccc(-c3ccc(C(=N)NCC4CC4)cc3)o2)cc1 [2,5-bis[4-[(N-cyclopropylmethylguanyl)phenyl]furan]",nuclease inhibition activity in P. carinii,[1],showed nuclease inhibition activity
"N=C(N)c1ccc(-c2ccc(-c3ccc(C(=N)N)cc3)o2)cc1 [2,5-bis[4-guanylphenyl]furan]",nuclease inhibition activity in P. carinii,[1],showed nuclease inhibition activity
"N=C(NC1CCC1)c1ccc(-c2ccc(-c3ccc(C(=N)NC4CCC4)cc3)o2)cc1 [2,5-bis[(4-N-cyclobutylgunayl)phenyl]furan]",nuclease inhibition activity in P. carinii,[1],showed nuclease inhibition activity
"N=C(NC1CCCC1)c1ccc(-c2ccc(-c3ccc(C(=N)NC4CCCC4)cc3)o2)cc1 [2,5-bis[(4-N-cyclopentylguanyl)phenyl]furan]",nuclease inhibition activity in P. carinii,[1],showed nuclease inhibition activity
N=C(Nc1ccccc1)c1ccc(OCCCCCOc2ccc(C(=N)Nc3ccccc3)cc2)cc1 [Di-Amidine A],IC50,[2],58 µM
same,Lung Cysts remaining (% of Control),[3],1.7 % of Control
same,% Inhibition,[4]; MTDX101 33 μM alone,25%
same,% Inhibition,[4]; MTDX101 336 μM alone,85%
same,% Inhibition,[5]; MTDX101 33 μM alone,15%
same,% Inhibition,[5]; MTDX101 336 μM alone,64%
same,% Inhibition,[6]; MTDX101 33 μM alone,20%
same,% Inhibition,[6]; MTDX101 336 μM alone,80%
CC(C)NC(=N)c1ccc(OCCCCCOc2ccc(C(=N)NC(C)C)cc2)cc1 [Di-Amidine B],IC50,[2],14 µM
same,Lung Cysts remaining (% of Control),[3],0.22 % of Control
NC(=O)c1ccc(I)c([N+](=O)[O-])c1 [Iniparib],inhibition at 42 µM,[4]; [9],0.8%
same,inhibition at 42 µM,[5]; [10],4.8%
same,inhibition at 42 µM,[6]; [11],5%
O=C(c1cc(Cc2n[nH]c(=O)c3ccccc23)ccc1F)N1CCN(C(=O)C2CC2)CC1 [Olaparib],inhibition at 73 µM,[4]; [9],11%
same,inhibition at 73 µM,[5]; [10],14%
same,inhibition at 73 µM,[6]; [11],17%
"N=C(N)c1ccc(OCCCCCOc2ccc(C(=N)N)cc2)cc1 [Pentamidine, pentamidine]",IC50,[2],50 µM
same,Endo-exonuclease Inhibition at 50 μM (%),[2]; 50 μM,50%
same,H661 (Lung Cancer Cell) (% of Cell Growth at 2.5 μM),"[7]; 2.5 μM, negative value = cell killing",20 ± 2%
same,death of the cancer cells (H661),[7]; Table 1,Death of the cancer cells was not observed
same,Lung Cysts remaining (% of Control),[3],4.5 % of Control
same,safety for patients,[8]; 4 mg/kg to 7 mg/kg for two days every two weeks,safe for patients
same,toxicity (known clinical data),"[8]; human, in vivo",low toxicity
C[C@]1(c2nc3c(C(N)=O)cccc3[nH]2)CCCN1 [Veliparib],inhibition at 50 µM,[4]; [9],19%
same,inhibition at 50 µM,[5]; [10],6%
same,inhibition at 50 µM,[6]; [11],13%
